Results reported in patent US20240033234A1, “THERAPEUTIC COMPOUNDS, FORMULATIONS, AND USE THEREOF” (Tvardi Therapeutics, Inc., priority 2022, published 2024).
Several values for one entry are separate records, joined by “and”; a condition that tells them apart may be missing. Equal entries are not always repeated.

Test: Accelerated and long term stability study of TTI-101 (Batch A, Batch B): HPLC assay, purity, impurities and water content after storage at 5° C., 25° C./60% RH, 30° C./65% RH or 40° C./75% RH
Assay type: physicochemical
Description: Exemplary HPLC conditions: diluent was 0.1% trifluoroacetic acid (TFA) in acetonitrile, Mobile Phase A was 0.05% TFA in water, and Mobile Phase B was 0.05% TFA in acetonitrile, column (Agilent, Eclipse XDB-C18, 3.0×100 mm, particle size 1.8 μm), flow (0.425 mL/min), and detector (280 nm diode array).
Batch A was prepared analogously using Method 3 as described in Example 1. Batch B was prepared according to Method 5 as described in Example 1.
Samples of TTI-101 were stored at 5° C., 25° C./60% RH, 30° C./65% RH, or 40° C./75% RH. TTI-101 was stored in an LDPE bag enclosed with a Nylon cable tie and then transferred to another LDPE bag and enclosed with a Nylon cable tie. The enclosure was put into an HDPE bottle and closed with a polyethylene-lined polypropylene cap. The samples were stored under the above-identified conditions.
The samples were analyzed using HPLC with the exemplary conditions identified above. Relative retention time (RRT) for Compound 5 was about 0.83, Compound 4 was about 1.05-1.06, Compound 6 was about 1.15-1.17, and compound of formula (IV) was about 0.99.
• NA not applicable • NQ ≥0.02% and <0.05% • Avg average • Cmpd compound • — no peak • M month • RRT relative retention time

[1] = Storage 25° C./60% RH, 6 M, Prep P1-P2
[2] = Storage 25° C./60% RH, 6 M, Prep P1-P2, listed as Batch B
[3] = Storage 25° C./60% RH, 9 M, Avg
[4] = Storage 25° C./60% RH, 9 M, Prep P1-P2
[5] = Storage 25° C./60% RH, 9 M, Prep P1-P2, listed as Batch B
[6] = Storage 40° C./75% RH, 0 M, Avg
[7] = Storage 40° C./75% RH, 0 M, Prep P1-P5
[8] = Storage 40° C./75% RH, 0 M, Prep P1-P5, listed as Batch B
[9] = Storage 40° C./75% RH, 1 M, Avg
[10] = Storage 40° C./75% RH, 1 M, Prep P1-P2

With `COc1ccc(S(=O)(=O)Nc2cc(-c3c(O)ccc4ccccc34)c(O)c3ccccc23)cc1` [TTI-101] as the compound, how does the “Impurity RRT 0.84” value [1] read?
The value was “NQ (≥0.02% and <0.05%)”.

What about the “Impurity RRT 0.87” value [1] of the same compound?
Its value is “NQ (≥0.02% and <0.05%)”.

What about the “Impurity RRT 1.05” value [1] of the same compound?
The value was “NQ (≥0.02% and <0.05%)”.

And the “Impurity RRT 1.06 (Cmpd 4)” value [1]?
Its value is “NQ (≥0.02% and <0.05%)”.

What about the “Impurity RRT 1.39” value [1] of the same compound?
The value was “NQ (≥0.02% and <0.05%)”.

What about the “Water Content” value [1] of the same compound?
Its value is under 0.04%.

What about the Assay [2] of the same compound?
The Assay was 99.0% and 98.5%.

And the “Impurity RRT 1.17 (Cmp 6)” value [2]?
Its value is 0.23 area % and 0.25 area %.

And the Purity [2]?
Its Purity is 99.6% and 99.5%.

What about the Assay [3] of the same compound?
The Assay was 99.0%.

What about the “Impurities Total” value [3] of the same compound?
The value was 0.4 area %.

And the “Impurity RRT 0.84” value [3]?
The value was “NQ (≥0.02% and <0.05%)”.

And the “Impurity RRT 0.87” value [3]?
Its value is “NQ (≥0.02% and <0.05%)”.

And the “Impurity RRT 0.99” value [3]?
Its value is 0.12 area %.

And the “Impurity RRT 1.02” value [3]?
Its value is 0.06 area %.

What about the “Impurity RRT 1.16 (Cmp 6)” value [3] of the same compound?
The value was 0.18 area %.

And the “Impurity RRT 1.39” value [3]?
Its value is “NQ (≥0.02% and <0.05%)”.

And the Purity [3]?
The Purity was 99.5%.

What about the “Water Content” value [3] of the same compound?
Its value is 0.1%.

What about the “Impurities Total” value [4] of the same compound?
Its value is 0.4 area %.

And the “Impurity RRT 0.84” value [4]?
Its value is “NQ (≥0.02% and <0.05%)”.

What about the “Impurity RRT 0.87” value [4] of the same compound?
The value was “NQ (≥0.02% and <0.05%)”.

What about the “Impurity RRT 1.02” value [4] of the same compound?
The value was 0.06 area %.

What about the “Impurity RRT 1.16 (Cmp 6)” value [4] of the same compound?
Its value is 0.18 area %.

What about the “Impurity RRT 1.39” value [4] of the same compound?
Its value is “NQ (≥0.02% and <0.05%)”.

What about the “Water Content” value [4] of the same compound?
Its value is 0.1%.

What about the Assay [5] of the same compound?
The Assay was 99.7% and 98.2%.

And the “Impurity RRT 0.99” value [5]?
Its value is 0.12 area % and 0.13 area %.

What about the Purity [5] of the same compound?
The Purity was 99.6% and 99.5%.

What about the Assay [6] of the same compound?
The Assay was 99.4%.

And the “Impurities Total” value [6]?
The value was 0.1 area %.

What about the “Impurity RRT 0.61” value [6] of the same compound?
The value was 0.05 area %.

And the “Impurity RRT 0.86” value [6]?
Its value is “NQ (≥0.02% and <0.05%)”.

What about the “Impurity RRT 0.88” value [6] of the same compound?
Its value is “NQ (≥0.02% and <0.05%)”.

And the “Impurity RRT 0.99” value [6]?
Its value is “NQ (≥0.02% and <0.05%)”.

And the “Impurity RRT 1.16 (Cmp 6)” value [6]?
Its value is 0.07 area %.

What about the Purity [6] of the same compound?
Its Purity is 99.8%.

What about the “Water Content” value [6] of the same compound?
Its value is 0.1%.

And the “Water Content” value (Storage 40° C./75% RH, 0 M, Prep P1-P2)?
Its value is 0.1%.

And the “Impurities Total” value [7]?
Its value is 0.1 area %.

What about the “Impurity RRT 0.86” value [7] of the same compound?
Its value is “NQ (≥0.02% and <0.05%)”.

And the “Impurity RRT 0.99” value [7]?
The value was “NQ (≥0.02% and <0.05%)”.

What about the Purity [7] of the same compound?
The Purity was 99.8%.

And the Assay [8]?
The Assay was 99.0% and 100.5% and 99.3% and 99.5% and 98.8%.

And the “Impurity RRT 1.16 (Cmp 6)” value [8]?
Its value is 0.08 area % and 0.07 area %.

And the Assay [9]?
Its Assay is 99.2%.

And the “Impurities Total” value [9]?
The value was 0.6 area %.

What about the “Impurity RRT 0.80” value [9] of the same compound?
The value was “NQ (≥0.02% and <0.05%)”.

And the “Impurity RRT 0.84” value [9]?
Its value is “NQ (≥0.02% and <0.05%)”.

And the “Impurity RRT 0.87” value [9]?
The value was “NQ (≥0.02% and <0.05%)”.

What about the “Impurity RRT 0.99” value [9] of the same compound?
Its value is 0.14 area %.

What about the “Impurity RRT 1.02” value [9] of the same compound?
Its value is 0.06 area %.

What about the “Impurity RRT 1.05” value [9] of the same compound?
Its value is “NQ (≥0.02% and <0.05%)”.

What about the “Impurity RRT 1.06 (Cmpd 4)” value [9] of the same compound?
The value was “NQ (≥0.02% and <0.05%)”.

What about the “Impurity RRT 1.17 (Cmp 6)” value [9] of the same compound?
Its value is 0.38 area %.

And the “Impurity RRT 1.39” value [9]?
Its value is 0.05 area %.

What about the Purity [9] of the same compound?
Its Purity is 99.3%.

What about the “Water Content” value [9] of the same compound?
The value was 0.1%.

And the “Impurities Total” value [10]?
Its value is 0.6 area %.

What about the “Impurity RRT 0.80” value [10] of the same compound?
Its value is “NQ (≥0.02% and <0.05%)”.

What about the “Impurity RRT 0.84” value [10] of the same compound?
Its value is “NQ (≥0.02% and <0.05%)”.

And the “Impurity RRT 0.87” value [10]?
Its value is “NQ (≥0.02% and <0.05%)”.
